Laboratory results: US11510964B2, “Macrocyclic peptides to decrease c-Myc protein levels and reduce cancer cell growth” (University of Kansas, priority 2017, dated 2022)
Non-standard residues stand in square brackets, D forms with d. Residues, ends and D or L forms follow the SMILES beside them.

Experiments:
[1] = system: c-Myc protein levels in PC-3 cells; experiment: Western blot analysis of cellular c-Myc protein levels; type: cell-based, human
Procedure: Cells were seeded in 6 well plates at a density of 1×10^5 cells/well and grown to 75% confluence. Cells were treated with [D-Trp]CJ-15,208 at the indicated concentrations. Cells were then harvested as described above, and the cell pellets lysed in RIPA buffer consisting of 10 mM Tris HCl, pH 8.0, 150 mM NaCl, 1 mM EDTA, 1% Triton-X-100, 0.1% SDS, 1% sodium deoxycholate, and a protease inhibitor cocktail #P8340 (Sigma). Cell lysates were centrifuged at 13×1000 rpm for 15 min and the supernatants collected. The total protein concentration was measured in cell lysates using the standard Bradford assay. SDS gel electrophoresis was performed using 4-20% polyacrylamide gel (BioRad). Western blot analysis was performed using the following antibodies: i) c-Myc #5605 (rabbit monoclonal, 1:2000 dilution, (Cell Signaling Technologies)); actin #A2228 (mouse monoclonal, 1:5000 dilution (Sigma)), PP2A #610555 (mouse monoclonal 1:5000 dilution, BD Biosciences), p-PP2A #1155-1 (rabbit polyclonal, 1:5000 dilution (Epitomics)), Erk #9107 (mouse monoclonal, 1:2000 dilution (Cell Signaling Technologies) and p-Erk #4376 (rabbit monoclonal, 1:2000 (Cell Signaling Technologies)); Akt #2920 (mouse monoclonal, 1:2000 dilution (Cell Signaling Technologies)), p-Akt #4056 (rabbit monoclonal, 1:2000 (Cell Signaling Technologies)). The secondary antibodies, goat-anti-mouse #116-035-003 and goat-anti-rabbit #111-035-003, were obtained from Jackson ImmunoResearch Laboratory. Signal densities of the protein bands were determined using ImageJ software (NIH) and normalized to the internal loading control (actin).

PC-3 cells = experiment: Cell cycle analysis (PI, flow cytometry); type: cell-based, human; conditions: PC-3, 10 μM
Procedure: PC-3 cells were grown in T-75 flask to 75% confluency and treated with either 10 μM [D-Trp]CJ-15,208 in 0.5% DMSO or 0.5% DMSO as a vehicle control for 24-48 h. After treatment, the cell media was collected, the cells were washed with ice cold PBS twice, and the washes collected with the media. The cells were then trypsinized and the combined cells and media centrifuged at 1200 rpm for 5 min. The cell pellet was resuspended in PBS, the cells counted using a hematocytometer, and 1 million cells resuspended in 300 μL PBS. The cells were fixed with 700 μL ice cold 100% ethanol overnight and then centrifuged at 1200 rpm. Following removal of the ethanol, the cells were resuspended in 500 μL PBS containing 100 μg/mL RNAse and incubated for 30 min at room temperature. Propidium iodide (PI) solution (Sigma, 100 μg/mL) was added, and the solution then incubated for 30 min at room temperature in the dark. Cell cycle analysis^38 was performed using a Beckman-Coulter MoFlo XDP flow cytometer, and the cell cycle phase distribution was analyzed using FlowJo v10.1.
Each experiment was performed in triplicate unless otherwise stated in the figure legend. GraphPad Prism 5 was used to determine IC50 values. Data represent the mean value+/−SEM. Compound vs. vehicle treated cells in the cell cycle phase and apoptosis experiments (FIGS. 5-8) were compared using the student's t-test, with a two-tailed, unpaired method, using the Prism software. The effects of compound vs. vehicle treatment on protein levels (FIG. 10) were evaluated by one-way ANOVA with Dunnett's test for multiple comparisons.

Akt in PC-3 cells = experiment: Western blot of p-Akt/total Akt protein levels; type: cell-based, human; conditions: 48 h
Procedure: Cells were seeded in 6 well plates at a density of 1×10^5 cells/well and grown to 75% confluence. Cells were treated with [D-Trp]CJ-15,208 at the indicated concentrations. Cells were then harvested as described above, and the cell pellets lysed in RIPA buffer consisting of 10 mM Tris HCl, pH 8.0, 150 mM NaCl, 1 mM EDTA, 1% Triton-X-100, 0.1% SDS, 1% sodium deoxycholate, and a protease inhibitor cocktail #P8340 (Sigma). Cell lysates were centrifuged at 13×1000 rpm for 15 min and the supernatants collected. The total protein concentration was measured in cell lysates using the standard Bradford assay. SDS gel electrophoresis was performed using 4-20% polyacrylamide gel (BioRad). […] Signal densities of the protein bands were determined using ImageJ software (NIH) and normalized to the internal loading control (actin).
Each experiment was performed in triplicate unless otherwise stated in the figure legend. […] The effects of compound vs. vehicle treatment on protein levels (FIG. 10) were evaluated by one-way ANOVA with Dunnett's test for multiple comparisons.

[2] = system: PC-3 cells xenograft tumors; experiment: Mouse xenograft model, tumor growth inhibition; type: in vivo; conditions: PC-3 xenograft in nude mice, 30 mg/kg intraperitoneally three times per week
Procedure: An in-vivo study was performed to determine tumor growth inhibition by [D-Trp]CJ-15,208 in a mouse xenograft model. PC-3 cells were injected subcutaneously in both rear flanks of nude mice. Once tumors were established, mice were treated intraperitoneally three times per week with either vehicle (50% DMSO, 45% PEG 400, and 5% polyoxyethylene (20) sorbitan monooleate (Tween 80); 3 mice, 6 tumors) or [D-Trp]CJ-15,208 (30 mg/kg in vehicle; 2 mice, 3 tumors). Tumor volume was measured using calipers.

[3] = mice, after systemic administration; cited from earlier work

In the case of `O=C1N[C@H](Cc2c[nH]c3ccccc23)C(=O)N[C@@H](Cc2ccccc2)C(=O)N2CCC[C@@H]2C(=O)N[C@H]1Cc1ccccc1` [[D-Trp]CJ-15,208, cyclo[Phe-D-Pro-Phe-D-Trp]] (cyclo(F[dP]F[dW])), the “decrease of cellular c-Myc protein levels” value ([1]; 50 μM (FIG. 1E lanes 4 and 5)) is reported as 5 fold, the “reduction of c-Myc protein levels” value ([1]; PC-3 cells, 10 μM, 48 h) is reported as “approximately 50%” and the “cell population in G2 phase” value (PC-3 cells; 24 h) is reported as 42±4%. The “mean cell distribution in S phase” value (PC-3 cells; 24 h) was 26±4%, the “mean cell population in G1 phase” value (PC-3 cells; 24 h) was 32±1% and the “cells accumulated in G2 phase compared to vehicle treated control cells” value (PC-3 cells; 24 h or 48 h) was “at least 8 fold”. The “cell population in G2 phase” value (PC-3 cells; 48 h) was 58±4%, the “mean cell distribution in S phase” value (PC-3 cells; 48 h) was 12±0.6% and the “mean cell population in G1 phase” value (PC-3 cells; 48 h) was 31±6%. For the same molecule, the “total Akt protein levels” value (Akt in PC-3 cells; PC-3, highest concentration (50 μM)) was “significant decrease”, the “cellular levels of p-Akt” value (Akt in PC-3 cells; PC-3, increasing concentrations) was “did not change significantly” and the “tumor growth compared to vehicle” value [2] was “decrease in tumor growth”. The blood-brain barrier penetration [3] was “appear to penetrate the blood-brain barrier”.
